Values quoted from earlier work, collected in patent US20190290478A1, “MEDICINAL HERBAL COMPOSITION FOR EYE APPLICATION” (priority 2018, published 2019).

Legend:
[1] = test system: HCECs exposed to hyperosmotic stress
murine dry eye = settings: 10 mM betaine compared with placebo on the 14, 21, 35 days

SMILES: C[N+](C)(C)CC(=O)O [betaine]
- inflammatory response via TRPV1 pathway [1]: suppress inflammatory response
- dry eye's symptom (murine dry eye): significantly reduced
